Assay results published in patent US9060988B2, “Method for treating pulmonary fibrosis using a pharmaceutical composition containing stanniocalcin 1 (STC1)” (Tohoku University, priority 2011, dated 2015).

Tests used:
[1] = literature report; cited from earlier work
[2] = tested on: bleomycin pulmonary fibrosis model; test: Fibrillization suppressing effect in bleomycin pulmonary fibrosis model mouse (histopathologic staining of lung); format: in vivo, C57BL6/J mice; set-up: key to 8OHDG (extent of peroxides accumulation) / HE (fibrillization) / EM (fibrillization): −: not observed; +: mild; ++: moderate; +++: severe; conditions: for 8OHDG staining of lung tissue (amount of peroxides, FIG. 7) / fibrillization (HE and EM stained images, FIGS. 1 to 5): bleomycin model; for 8OHDG staining of lung tissue (amount of peroxides, FIG. 7): extent similar to that of the normal lung group; for fibrillization (HE and EM stained images, FIGS. 1 to 5) / response on progression of pulmonary fibrosis: intratracheal administration; for fibrillization (HE and EM stained images, FIGS. 1 to 5): versus saline control group in which fibrillization was induced; for response on progression of pulmonary fibrosis: bleomycin pulmonary fibrosis model; for 8OHDG (extent of peroxides accumulation) / EM (fibrillization) / HE (fibrillization): lung tissue, one week after intratracheal administration together with bleomycin, STC1 500 ng, NAC 3 mg; for 8OHDG (extent of peroxides accumulation): 8OHDG staining; for EM (fibrillization): Elastica-Masson staining; for HE (fibrillization): HE staining
Excerpt: The action of STC1 was investigated using a pulmonary fibrosis model utilizing the mitotic inhibitory action of an anticancer agent, bleomycin (Bleo), as the disease model mouse.
Human recombinant (r) STC1 was produced by BioVender, Inc. Specifically, human-derived STC1 gene added with a TAG structure was introduced into the 293 cells, and rSTC1 was separated using the TAG sequence.
Specifically, C57BL6/J mice (female, 10 weeks old), four animals in each group, were anesthetized by intraperitoneally administering an anesthetic agent (obtained by diluting 300 μg of ketamine hydrochloride and […] of xylazine in 100 μL of physiological saline). Thereafter, the cervix was cut open to expose a trachea, and the jacket of a 23G SURFLO needle was inserted into the trachea. Then, the following drugs were respectively administered intratracheally through the SURFLO jackets to the mice of each group.
(1) Saline control group: 50 μL of bleomycin-containing physiological saline (bleomycin concentration: 400 ng/mL)
(2) STC1-administered group: 500 ng of STC1+50 μL of bleomycin-containing physiological saline
(3) NAC-administered group (positive control): 3 mg of NAC+50 μL of bleomycin-containing physiological saline
(4) Normal lung group: 50 μL of physiological saline
After one week, the mice were euthanized by anesthetizing the mice as described above and then cutting the carotid artery, and subsequently, the lungs were removed. The extirpated lung tissues were subjected to histopathologic staining (HE (hematoxylin eosin) staining, EM (Elastica-Masson staining), and 8OHDG staining) by standard methods.

Row | Compound | suppression of the immune system [1] | 8OHDG staining of lung tissue (amount of peroxides, FIG. 7) [2] | fibrillization (HE and EM stained images, FIGS. 1 to 5) [2] | response on progression of pulmonary fibrosis [2] | 8OHDG (extent of peroxides accumulation) [2] | EM (fibrillization) [2] | HE (fibrillization) [2]
1 | Stanniocalcin 1 [STC1] | does not cause suppression of the immune system | poorly stained | fibrillization was suppressed | complete response | + | + | +
2 | CC(=O)N[C@@H](CS)C(=O)O [NAC, N-acetylcysteine, reference compound] |  | poorly stained | fibrillization was suppressed | amelioration | + | +~++ | +~++
